Source: patent US20240140970A1, “A […], AND PREPARATION METHOD AND USE THEREOF” (ASCENTAWITS PHARMACEUTICALS, LTD., priority 2021, published 2024)
Values joined by “and” are separate entries in the source; they are usually repeats but may differ in a detail not shown here. Identical values can stand only once.

Assay: Freeze/thaw stability of AST-2660 in human urine (LC-MS/MS)
Format: in vitro ADME
Protocol: The detection method established in example 6 was used to detect the content of AST-2660 in the human urine to be tested.
Matrix: the mixed normal human urine containing an additive Na2HPO4·12H2O. • a: the internal standard working solution: AST-2660-D8 was taken, dissolved with methanol, and diluted to prepare a solution containing about 100 ng per 1 ml. • b: the solution to be tested (no internal standard compound was added to the solution to be tested at this time): it was obtained by taking a blood sample to be tested. • c: the standard working solution (no internal standard compound was added to the standard working solution at this time): an appropriate amount of AST-2660 was taken and accurately weighed, dissolved with methanol and diluted to prepare a solution containing about 1.0 mg per 1 ml, which was used as the standard working stock solution. An appropriate amount of the standard working stock solution was taken, added with the matrix and diluted to prepare standard working solutions with different concentrations containing about 200 ng, 160 ng, 100 ng, 50 ng, 10 ng, 2.0 ng, 1.0 ng and 0.5 ng per 1 ml, respectively. (The solution was stored at −70° C.) • d: the quality control sample solution: an appropriate amount of AST-2660 was taken and accurately weighed, dissolved with methanol, and diluted to prepare a solution containing about 10 μg per 1 ml, which was used as the quality control working stock solution. An appropriate amount of the quality control working stock solution was taken, and added with the matrix to prepare quality control working solutions with different concentrations containing about 150 ng, 60 ng, 15 ng, 1.5 ng and 0.5 ng per 1 ml. (The solution was stored at −70° C.)
The solution to be tested, the standard working solution and the quality control sample solution were thawed at room temperature and mixed uniformly. 100 μl of the above solution was respectively taken, added with 20 μl of the internal standard and 500 μl of methanol, and vortexed for 3 minutes to mix uniformly, and then centrifuged for 30 minutes at 2143 rcf. 450 μl of supernatant was taken, and then centrifuged for 10 minutes in a 96-well plate at 2143 rcf. It was obtained by taking 300 μl of supernatant.
Liquid phase conditions: A SHARC 1, 3 μm, 2.1*50 mm or chromatograph column with equivalent performance was used; methanol solution containing low content of ammonium acetate was used; mobile phase B was acetonitrile; the gradient elution was performed according to the following table; column temperature: 20° C.; injection volume: 5 μl.
Mass spectrometric conditions: electrospray ion source with negative ion scanning mode; spray potential: −4500 V; ion source temperature: 500° C.; collision energy (CE): −22 eV; declustering potential (DP): −55V; entrance potential (EP): −10V; collision chamber exit potential (CXP): −16V; dwell time: 100 ms; high purity nitrogen was used for all gases; AST-2660 ions pairs: m/z 147.0→m/z 62.9; the internal standard AST-2660-D8 ion pairs: m/z 155.0→m/z 62.9.
The AST-2660 standard working solution, blank sample, zero concentration sample, solution to be tested and quality control working solution with different concentrations after extraction were respectively taken and injected into LC-MS/MS for detection.
Calculation results: the relationship function y=f (x) of the ratio of the peak area of AST-2660 to that of the internal standard was obtained from AST-2660 standard working solutions with different concentrations. The ratio of the peak area of AST-2660 to that of the internal standard was determined from the solution to be tested after extraction, and substituted into the relationship function y=f (x) to calculate the concentration of the metabolite II in the solution to be tested.

[1] = human urine, DilQC (10-fold dilution) nominal 1500 ng/ml, 3 freeze/thaw cycles at −70° C.
[2] = human urine, DilQC (10-fold dilution) nominal 1500 ng/ml, 5 freeze/thaw cycles at −70° C.
[3] = human urine, QC1 nominal 1.50 ng/ml, 3 freeze/thaw cycles at −70° C.
[4] = human urine, QC1 nominal 1.50 ng/ml, 5 freeze/thaw cycles at −70° C.
[5] = human urine, QC4 nominal 150 ng/ml, 3 freeze/thaw cycles at −70° C.
[6] = human urine, QC4 nominal 150 ng/ml, 5 freeze/thaw cycles at −20° C.
[7] = human urine, QC4 nominal 150 ng/ml, 5 freeze/thaw cycles at −70° C.

O=P([O-])(N1CC1)N1CC1.[Na+] [AST-2660]
RE (accuracy), range over three concentration levels (freezing/thawing at −70° C. for up to 3 cycles, 1.5, 150 and 1500 ng/ml): RE: −11.8% to 12.5% | AST-2660 concentration, Mean value [1]: 1540 ng/mL | AST-2660 concentration, single replicates [1]: 1650 ng/ml and 1500 ng/ml (2×) and 1510 ng/ml | RE (%) vs nominal [1]: 2.7% | AST-2660 concentration, single replicates (human urine, DilQC (10-fold dilution) nominal 1500 ng/ml, 5 freeze/thaw cycles at −20° C.): <LLOQ (5.00) ng/ml | AST-2660 concentration, Mean value [2]: 1508 ng/mL | AST-2660 concentration, single replicates [2]: 1490 ng/ml and 1500 ng/ml (2×) and 1540 ng/ml | RE (%) vs nominal [2]: 0.5% | AST-2660 concentration, Mean value [3]: 1.60 ng/mL | AST-2660 concentration, single replicates [3]: 1.69 ng/mL and 1.72 ng/mL and 1.47 ng/mL and 1.51 ng/mL | RE (%) vs nominal [3]: 6.5% | AST-2660 concentration, single replicates (human urine, QC1 nominal 1.50 ng/ml, 5 freeze/thaw cycles at −20° C.): <LLOQ (0.500) ng/ml | AST-2660 concentration, Mean value [4]: 1.73 ng/mL | AST-2660 concentration, single replicates [4]: 2.14 ng/mL and 1.58 ng/mL and 1.68 ng/mL and 1.52 ng/mL | RE (%) vs nominal [4]: 15.3% | AST-2660 concentration, Mean value [5]: 149 ng/mL | AST-2660 concentration, single replicates [5]: 145 ng/ml and 148 ng/ml (2×) and 154 ng/ml | RE (%) vs nominal [5]: −0.8% | AST-2660 concentration, Mean value [6]: 13 ng/mL | AST-2660 concentration, single replicates [6]: 12.2 ng/mL and 13.0 ng/mL and 12.3 ng/mL and 12.5 ng/mL | RE (%) vs nominal [6]: −91.7% | AST-2660 concentration, Mean value [7]: 173 ng/mL | AST-2660 concentration, single replicates [7]: 172 ng/ml (2×) and 169 ng/ml and 178 ng/ml | RE (%) vs nominal [7]: 15.2% | reduction of AST-2660 content (human urine, freeze-thaw process from −20° C. to room temperature): ~90% | change of AST-2660 content (in words) (human urine, freeze-thaw process from −70° C. to room temperature): almost no reduction
